The values that follow come from publication PMC8617691, “Distigmasterol-Modified Acylglycerols as New Structured Lipids—Synthesis, Identification and Cytotoxicity” (Molecules, 2021).

The nature of data set [1]: MTT cytotoxicity test, small intestinal epithelial cells. Format: cell-based, human. The conditions noted are these: human, FHs 74 Int normal small intestinal epithelial cells, FHs 74 Int cells, 100 µg/mL, 48 h, read-out: cell viability at the maximum concentration tested. As for the experimental part: (§1) Distigmasterol-modified acylglycerols were examined for their cytotoxicity in normal human cells originating from the digestive system. The cells were treated for 48 h with increasing concentrations of dStigMAs, and cell proliferation, metabolic activity, and viability were assayed using the MTT test. The cytotoxic effects of the analyzed dStigMAs on CCD 841CoN colon mucosa cells, FHs 74 Int small intestine epithelial cells, and THLE-2 hepatocytes are presented in Figure 6.
(§2) The cytotoxicity of dStigMAs was analyzed at the maximum concentration of 100 µg/mL, which corresponded to doses of 83 µM of dStigC-PA, 81 µM of dStigC-OA, 76 µM of dStigS-PA, and 75 µM of dStigS-OA. The minimum doses tested were 10,000-fold lower. Cell viability and metabolic activity were assessed using the MTT test following the procedure described by Olejnik et al..
(§3) Figure 6 Effect of dStigMAs on (A) normal small intestinal epithelial cells (FHs 74 Int, ATCC® CCL241™), (B) normal colonic epithelial cells (CCD 841CoN, ATCC® CRL-179™), and (C) normal liver cells (THLE-2, ATCC® CRL-2706™).
In general terms: Tetrazolium assays rely on reduction of a dye to a coloured formazan, in cell work by metabolically active cells.

Data set [2] concerns FHs 74 Int small intestine epithelial cells. Described as above. The format is cell-based, human. The note with it: FHs 74 Int cells; for dose at which first cytotoxic symptoms were noted: 48 h treatment; for EC50: Homo sapiens, FHs74Int, read-out: median effective concentration (EC50); for EC50 / cytotoxicity (in words): 48 h; for cytotoxicity (in words): 100 µg/mL and lower concentrations. As for the experimental part:
as §1, §2, §3

Data set [3] can be described thus: MTT cytotoxicity test, colon mucosa cells. Format: cell-based, human. The conditions noted are these: human, CCD 841CoN normal colonic epithelial cells, colon cells (CCD 841CoN), 100 µg/mL, read-out: cell proliferation and viability at the maximum dose. Here is the method:
as §1, §2, §3

Data set [4] can be described thus: MTT cytotoxicity test, hepatocytes. The format is cell-based, human. The conditions noted are these: human, THLE-2 normal liver cells (hepatocytes), liver cells (THLE-2), 100 µg/mL, read-out: cell proliferation and viability at the maximum dose. Here is the method: as §1, §2, §3
The subject of data set [5] is CCD 841CoN colon mucosa cells. In words: MTT cytotoxicity test, colon mucosa cells. Format: cell-based, human. The note with it: CCD 841CoN cells, 100 µg/mL and lower concentrations, 48 h. As for the experimental part: as §1, §2, §3
The test system of another data set is THLE-2 hepatocytes. In words: MTT cytotoxicity test, hepatocytes. The format is cell-based, human. The note with it: THLE-2 cells, 100 µg/mL and lower concentrations, 48 h. Here is the method: as §1, §2, §3

What is called melting point is the temperature of the solid-liquid transition.

Read-outs that look alike come from different tables or passages of the source.

Take `CCCCCCCCCCCCCCCC(=O)OCC(COC(=O)O[C@H]1CC[C@@]2(C)C(=CC[C@H]3[C@@H]4CC[C@H]([C@H](C)/C=C/[C@@H](CC)C(C)C)[C@@]4(C)CC[C@@H]32)C1)OC(=O)O[C@H]1CC[C@@]2(C)C(=CC[C@H]3[C@@H]4CC[C@H]([C@H](C)/C=C/[C@@H](CC)C(C)C)[C@@]4(C)CC[C@@H]32)C1` (stereo partly shown) [dStigC-PA, 1,2-Distigmasterylcarbonoyl-3-Palmitoyl-sn-Glycerol]: the viability at 48 h, 100 µg/mL in data set [1] was determined as 17.5%; in data set [3], 53.8%; in data set [4], 56.3%. In addition, in data set [2], the “dose at which first cytotoxic symptoms were noted” value amounted to 0.1 µg/mL. The EC50 in data set [2] amounted to 0.32 µg/mL; in data set [2] (value in brackets), 266 nM.
`CCCCCCCCCCCCCCCC(=O)OCC(COC(=O)CCC(=O)O[C@H]1CC[C@@]2(C)C(=CC[C@H]3[C@@H]4CC[C@H]([C@H](C)/C=C/[C@@H](CC)C(C)C)[C@@]4(C)CC[C@@H]32)C1)OC(=O)CCC(=O)O[C@H]1CC[C@@]2(C)C(=CC[C@H]3[C@@H]4CC[C@H]([C@H](C)/C=C/[C@@H](CC)C(C)C)[C@@]4(C)CC[C@@H]32)C1` (stereo partly shown) [dStigS-PA, 1,2-Distigmasterylsuccinoyl-3-Palmitoyl-sn-Glycerol] yielded a melting point of 91 to 93 °C. The “cytotoxicity (in words)” value in data set [2] is recorded as “no cytotoxic activity”. Also, in data set [5], the “cytotoxicity (in words)” value is “no cytotoxic activity”. The “cytotoxicity (in words)” value with THLE-2 hepatocytes is “no cytotoxic activity”.
Regarding `CCCCCCCCC=CCCCCCCCC(=O)OCC(COC(=O)OC1CCC2(C)C(=CCC3C2CCC2(C)C(C(C)C=CC(CC)C(C)C)CCC32)C1)OC(=O)OC1CCC2(C)C(=CCC3C2CCC2(C)C(C(C)C=CC(CC)C(C)C)CCC32)C1` (stereo not shown) [dStigC-OA, 2,3-Distigmasterylcarbonoyl-1-Oleoyl-sn-Glycerol], the viability at 48 h, 100 µg/mL came out at 20.2% in data set [1], 59.4% in data set [3] and 48.9% in data set [4]. Besides, the “dose at which first cytotoxic symptoms were noted” value in data set [2] stood at 0.1 µg/mL. Also, the EC50 in data set [2] came to 0.47 µg/mL; in data set [2] (value in brackets), 381 nM.
On to `CCCCCCCCC=CCCCCCCCC(=O)OCC(COC(=O)CCC(=O)OC1CCC2(C)C(=CCC3C2CCC2(C)C(C(C)C=CC(CC)C(C)C)CCC32)C1)OC(=O)CCC(=O)OC1CCC2(C)C(=CCC3C2CCC2(C)C(C(C)C=CC(CC)C(C)C)CCC32)C1` (stereo not shown) [dStigS-OA, 2,3-Distigmasterylsuccinoyl-1-Oleoyl-sn-Glycerol], for which the “cytotoxicity (in words)” value (in data set [2]; in data set [5]; with THLE-2 hepatocytes) was “no cytotoxic activity” in each case.
